Results: paper PMC4278837, “A Cyclic Peptidic Serine Protease Inhibitor: Increasing Affinity by Increasing Peptide Flexibility” (PLoS ONE, 2014)
Where two headings read alike, the source gives them in different places. Bridge positions count the residues as written; N and C are the ends. Square brackets hold non-standard residues; d marks the D form. Peptide text beside a SMILES is read from it. Phe(4-guanidino) = N=C(N)Nc1ccc(C[C@H](N)C(=O)O)cc1

Legend:
[1] = biological target: T1, huPA-H99Y (Homo sapiens, UniProt P00749, H272Y); assay: Ki for inhibition of huPA-H99Y, chromogenic substrate S-2444; assay type: biochemical; settings: 37°C; means ± S.D.; read-out: K i for inhibition of huPA-H99Y
T1 construct: To ensure that the uPAs purified from the conditioned media were completely in the two-chain form, they were treated with plasmin; hexa-His (C); made in house; host or cells: HEK293 6E suspension cells
Source text: (§1) Determination of Ki values
(§2) The initial reaction velocities were monitored at an absorbance of 405 nm. The inhibition constants (K i) were subsequently determined from the non-linear regression analyses of plots for V i/V o versus [I]0, using Equation 2, derived under assumption of competitive inhibition:
(§3) [drawing 2] (2) where V i and V 0 are the reaction velocities in the presence and absence of inhibitor, respectively; [S]0 and [I]0 are the substrate and inhibitor concentrations, respectively; K M is K M for substrate hydrolysis by each protease. In Equation 2, it is assumed that [S]free ≈ [S]0 and [I]free ≈ [I]0.

[2] = biological target: T2, huPA-H99Y R35A (Homo sapiens, UniProt P00749, H272Y/R198A); assay: Ki for inhibition of huPA-H99Y-R35A, chromogenic substrate; assay type: biochemical
T2 construct: To ensure that the uPAs purified from the conditioned media were completely in the two-chain form, they were treated with plasmin; hexa-His (C); made in house; host or cells: HEK293 6E suspension cells
Source text: as §1, §2, §3

[3] = biological target: T3, huPA-H99Y V41A (Homo sapiens, UniProt P00749, H272Y/V208A); assay: Ki for inhibition of huPA-H99Y-V41A, chromogenic substrate; assay type: biochemical
T3 construct: To ensure that the uPAs purified from the conditioned media were completely in the two-chain form, they were treated with plasmin; hexa-His (C); made in house; host or cells: HEK293 6E suspension cells
Source text: as §1, §2, §3

[4] = biological target: T4, muPA wt (Mus musculus, UniProt P06869); assay: Ki for inhibition of muPA wt, chromogenic substrate; assay type: biochemical, murine; settings: means ± S.D.; read-out: K i for inhibition of muPA wt
T4 construct: To ensure that the uPAs purified from the conditioned media were completely in the two-chain form, they were treated with plasmin; hexa-His (C); made in house; host or cells: HEK293 6E suspension cells
T4 sequence (P06869 180-433 limits assumed): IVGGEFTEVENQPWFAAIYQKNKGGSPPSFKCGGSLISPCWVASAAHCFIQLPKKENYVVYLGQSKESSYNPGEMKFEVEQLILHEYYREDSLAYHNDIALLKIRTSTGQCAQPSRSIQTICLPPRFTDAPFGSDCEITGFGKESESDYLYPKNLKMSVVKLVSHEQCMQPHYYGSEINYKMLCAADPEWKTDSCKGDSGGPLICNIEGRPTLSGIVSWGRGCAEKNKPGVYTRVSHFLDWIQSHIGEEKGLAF
T4 sequence (P06869 21-178 partner limits assumed): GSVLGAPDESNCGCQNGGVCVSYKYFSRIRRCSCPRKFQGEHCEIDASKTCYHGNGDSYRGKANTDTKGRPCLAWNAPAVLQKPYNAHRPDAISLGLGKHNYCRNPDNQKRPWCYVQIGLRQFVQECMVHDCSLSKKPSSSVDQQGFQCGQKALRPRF
Source text: as §1, §2, §3

[5] = biological target: T5, muPA K41A (Mus musculus, UniProt P06869, K210A); assay: Ki for inhibition of muPA-K41A, chromogenic substrate; assay type: biochemical, murine
T5 construct: To ensure that the uPAs purified from the conditioned media were completely in the two-chain form, they were treated with plasmin; hexa-His (C); made in house; host or cells: HEK293 6E suspension cells
T5 sequence (P06869 180-433 K210A): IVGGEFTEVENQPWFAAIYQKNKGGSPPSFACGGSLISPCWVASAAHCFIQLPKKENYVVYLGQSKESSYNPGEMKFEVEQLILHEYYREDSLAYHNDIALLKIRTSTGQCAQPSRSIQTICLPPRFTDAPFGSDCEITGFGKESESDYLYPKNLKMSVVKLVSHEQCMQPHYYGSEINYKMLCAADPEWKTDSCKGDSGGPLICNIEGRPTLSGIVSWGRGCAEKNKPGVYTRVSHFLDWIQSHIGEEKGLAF
T5 sequence (P06869 21-178 partner limits assumed): as the sequence (P06869 21-178 partner limits assumed) above
Source text: as §1, §2, §3

[6] = biological target: T6, muPA Y99A (Mus musculus, UniProt P06869, Y274A); assay: Ki for inhibition of muPA-Y99A, chromogenic substrate; assay type: biochemical, murine
T6 construct: To ensure that the uPAs purified from the conditioned media were completely in the two-chain form, they were treated with plasmin; hexa-His (C); made in house; host or cells: HEK293 6E suspension cells
T6 sequence (P06869 180-433 Y274A): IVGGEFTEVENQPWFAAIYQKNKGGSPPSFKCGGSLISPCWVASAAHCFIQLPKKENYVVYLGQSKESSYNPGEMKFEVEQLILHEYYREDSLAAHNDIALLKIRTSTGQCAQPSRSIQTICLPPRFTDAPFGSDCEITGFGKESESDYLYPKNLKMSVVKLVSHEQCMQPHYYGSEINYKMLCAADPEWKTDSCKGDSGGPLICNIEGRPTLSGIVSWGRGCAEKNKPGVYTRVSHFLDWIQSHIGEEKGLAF
T6 sequence (P06869 21-178 partner limits assumed): as the sequence (P06869 21-178 partner limits assumed) above
Source text: as §1, §2, §3

[7] = biological target: T7, muPA K143A (Mus musculus, UniProt P06869, K322A); assay: Ki for inhibition of muPA-K143A, chromogenic substrate; assay type: biochemical, murine; settings: means ± S.D.; read-out: K i for inhibition of muPA-K143A
T7 construct: To ensure that the uPAs purified from the conditioned media were completely in the two-chain form, they were treated with plasmin; hexa-His (C); made in house; host or cells: HEK293 6E suspension cells
T7 sequence (P06869 180-433 K322A): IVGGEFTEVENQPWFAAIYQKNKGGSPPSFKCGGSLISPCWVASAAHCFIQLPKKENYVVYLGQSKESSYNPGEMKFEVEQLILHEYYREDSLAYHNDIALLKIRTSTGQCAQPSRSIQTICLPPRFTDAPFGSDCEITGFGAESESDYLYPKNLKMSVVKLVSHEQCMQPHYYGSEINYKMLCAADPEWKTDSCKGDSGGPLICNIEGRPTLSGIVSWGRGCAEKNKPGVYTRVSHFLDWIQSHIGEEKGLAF
T7 sequence (P06869 21-178 partner limits assumed): as the sequence (P06869 21-178 partner limits assumed) above
Source text: as §1, §2, §3

[8] = biological target: T8, muPA S190A (Mus musculus, UniProt P06869, S373A); assay: Ki for inhibition of muPA-S190A, chromogenic substrate; assay type: biochemical, murine
T8 construct: To ensure that the uPAs purified from the conditioned media were completely in the two-chain form, they were treated with plasmin; hexa-His (C); made in house; host or cells: HEK293 6E suspension cells
T8 sequence (P06869 180-433 S373A): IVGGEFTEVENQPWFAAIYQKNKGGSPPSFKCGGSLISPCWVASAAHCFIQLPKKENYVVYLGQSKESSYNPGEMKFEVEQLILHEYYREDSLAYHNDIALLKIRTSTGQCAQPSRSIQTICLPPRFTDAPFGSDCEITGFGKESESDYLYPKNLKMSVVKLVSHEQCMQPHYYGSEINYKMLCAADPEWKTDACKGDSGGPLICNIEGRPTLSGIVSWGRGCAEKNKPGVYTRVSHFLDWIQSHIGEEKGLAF
T8 sequence (P06869 21-178 partner limits assumed): as the sequence (P06869 21-178 partner limits assumed) above
Source text: as §1, §2, §3

[9] = biological target: T9, muPA V213T (Mus musculus, UniProt P06869, V396T); assay: Ki for inhibition of muPA-V213T, chromogenic substrate; assay type: biochemical, murine
T9 construct: To ensure that the uPAs purified from the conditioned media were completely in the two-chain form, they were treated with plasmin; hexa-His (C); made in house; host or cells: HEK293 6E suspension cells
T9 sequence (P06869 180-433 V396T): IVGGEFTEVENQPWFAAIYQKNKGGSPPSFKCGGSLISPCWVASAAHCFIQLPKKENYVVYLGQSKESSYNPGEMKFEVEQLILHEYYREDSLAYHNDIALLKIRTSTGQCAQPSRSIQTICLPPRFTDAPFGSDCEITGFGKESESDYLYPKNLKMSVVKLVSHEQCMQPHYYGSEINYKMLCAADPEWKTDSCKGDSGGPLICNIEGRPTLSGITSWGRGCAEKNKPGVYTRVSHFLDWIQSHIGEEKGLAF
T9 sequence (P06869 21-178 partner limits assumed): as the sequence (P06869 21-178 partner limits assumed) above
Source text: as §1, §2, §3

[10] = biological target: T1, huPA-H99Y; assay: Surface plasmon resonance analysis of peptide binding to huPA-H99Y; settings: SPR
Procedure: (§4) Surface plasmon resonance (SPR) analysis
(§5) To determine the equilibrium binding constants (KD), the association rate constants (kon) and dissociation rate constants (koff) for peptide binding to uPA, surface plasmon resonance analysis was performed on a Biacore T200 instrument (Biacore, Uppsala, Sweden). A CM5 chip was coupled with the uPA variant (muPA or huPAH99Y) to be analysed, by injecting a concentration of 30 µg/mL uPA in immobilization buffer (10 mM sodium acetate, pH 5.0), aiming for an immobilised level of approximately 500 response units (RU). Immobilisation was followed by surface blocking with ethanolamine. A reference cell was prepared in the same way, without coupling of uPA. Mupain-1 variants in HBS with 0.1% BSA, in a dilution series, were injected at a flow rate of 30 µL per min during 60 s at 25°C. Subsequently, the dissociation was monitored during 600 s. Kinetic constants (k on and k off) were calculated with the Biacore Evaluation Software, using the 1∶1 kinetic fit. The K D values were calculated as k off /k on.

[11] = biological target: T10, muPA (Mus musculus, UniProt P06869); assay: Surface plasmon resonance analysis of peptide binding to muPA; design: species or system murine; settings: SPR, 25°C, pH 7.4
T10 construct: To ensure that the uPAs purified from the conditioned media were completely in the two-chain form, they were treated with plasmin; hexa-His (C); made in house; host or cells: HEK293 6E suspension cells
T10 sequence (P06869 180-433 limits assumed): as the sequence (P06869 180-433 limits assumed) above
T10 sequence (P06869 21-178 partner limits assumed): as the sequence (P06869 21-178 partner limits assumed) above
Procedure: as §4, §5

[12] = biological target: T11, huPA-H99Y (Homo sapiens, UniProt P00749, C299A/H272Y/N322Q); assay: Isothermal titration calorimetry for binding to huPA-H99Y catalytic domain; settings: ITC, 25°C, pH 7.4
T11 construct: recombinant uPA catalytic domain (residues 159–411), harbouring a H99Y mutation; made in house; host or cells: Pichia pastoris X-33 (secreted)
Procedure: For these experiments, we used the catalytic domain of huPA-H99Y expressed in and purified from Pichia pastoris strain X-33 (see above). The protein was dissolved in and dialysed against a buffer of 20 mM sodium phosphate, pH 7.4, 140 mM NaCl. The protein concentration was determined by absorbance at 280 nm, using an extinction coefficient of 43810 M^−1cm^−1. The peptides were dissolved in the above-mentioned buffer. All isothermal titration calorimetry experiments were performed with a MicroCal^TM ITC200 instrument equilibrated to a temperature of 25°C (298oK). The concentration of uPA-H99Y catalytic domain used in the 200 µl sample cell was 5–50 µM, depending on the affinity of the ligand. Titrations were performed by injecting 2 µl of the ligand until the total syringe volume of 40 µl was spent. Titration of ligand into buffer was performed to obtain buffer correction. The equilibrium association constant KA and the reaction enthalpy ΔH were calculated by fitting the integrated titration peaks using a one-binding-site model in the ITC ORIGIN7 programme package. The following formulas for Gibbs free energy ΔG were used to analyse the measured energies
[drawing 4] (4) where R is the gas constant and T the absolute temperature. ΔS, the entropic change during the reaction, was calculated using equations 3 and 4 and the measured K A and ΔH values.

[13] = biological target: huPA-H99Y Q192A (Homo sapiens, UniProt P00749, H272Y/Q373A); assay: Ki for inhibition of huPA-H99Y-Q192A, chromogenic substrate; assay type: biochemical; design: To ensure that the uPAs purified from the conditioned media were completely in the two-chain form, they were treated with plasmin; hexa-His (C); made in house; host or cells: HEK293 6E suspension cells
Source text: as §1, §2, §3

[14] = biological target: T12, huPA-H99Y K143A (Homo sapiens, UniProt P00749, H272Y/K320A); assay: Ki for inhibition of huPA-H99Y-K143A, chromogenic substrate; assay type: biochemical
T12 construct: To ensure that the uPAs purified from the conditioned media were completely in the two-chain form, they were treated with plasmin; hexa-His (C); made in house; host or cells: HEK293 6E suspension cells
Source text: as §1, §2, §3

[15] = biological target: T1, huPA-H99Y; settings: 37°C; means ± S.D.; starred values reproduced from previous publications; ref Andersen et al., 2008; Hosseini et al., 2011; read-out: K i for inhibition of huPA-H99Y; cited from earlier work
[16] = biological target: T4, muPA wt; settings: introduction; read-out: K i value for inhibition of muPA; cited from earlier work

Compound: CC(=O)N[C@H]1CSSC[C@@H](C(N)=O)NC(=O)[C@H](C)NC(=O)[C@H](CC(C)C)NC(=O)[C@H](Cc2ccc(O)cc2)NC(=O)[C@H](Cc2ccc(NC(=N)N)cc2)NC(=O)[C@H](CO)NC(=O)[C@H](Cc2ccc(O)cc2)NC(=O)[C@H](C)NC(=O)[C@@H]2CCCN2C1=O [Mupain-1-12 D9A, CPAYS[4-guanidino-phenyl-alanine]YLAC] (Ac-CPAYS[Phe(4-guanidino)]YLAC-NH2; disulfide 1-10; N-terminus assumed)
- Ki [1]: 186 ± 36 nM
- Ki ([2]; 37°C, means ± S.D., read-out: K i for inhibition of huPA-H99Y-R35A): 231 ± 78 nM
- Ki ([3]; 37°C, means ± S.D., read-out: K i for inhibition of huPA-H99Y-V41A): 478 ± 137 nM
- Ki [4]: 190 ± 10 nM
- Ki ([5]; means ± S.D., read-out: K i for inhibition of muPA-K41A): 91 ± 7 nM
- Ki ([6]; means ± S.D., read-out: K i for inhibition of muPA-Y99A): 5890 ± 1310 nM
- Ki [7]: 1000 ± 30 nM
- Ki ([8]; means ± S.D., read-out: K i for inhibition of muPA-S190A): 3520 ± 500 nM
- Ki ([9]; means ± S.D., read-out: K i for inhibition of muPA-V213T): 166 ± 75 nM
- k off, huPA-H99Y ([10]; 25°C, pH 7.4): 7.94±0.39 (3) s^-1, ×10^2
- k on, huPA-H99Y ([10]; 25°C, pH 7.4): 5.93±0.33 (3) M^-1s^-1, ×10^-5
- Kd ([10]; 25°C, pH 7.4, calculated as k off/k on, read-out: K D, huPA-H99Y): 134 ± 2 nM
- k off, muPA [11]: 3.94±0.30 (3) s^−1, ×10^2
- k on, muPA [11]: 2.42±1.01 (3) M^−1s^−1, ×10^−5
- Kd ([11]; calculated as k off/k on, read-out: K D, muPA): 177 ± 51 nM
- Kd [12]: 138 ± 47 nM
- N [12]: 0.88±0.01 (3)
- TΔS [12]: −18.9±5.1 (3) ^1 kJ/mole
- ΔG [12]: −39.2±0.8 (3) ^1 kJ/mole
- ΔH [12]: −60.1±5.4 (3) ^1 kJ/mole
- Ki ([13]; 37°C, means ± S.D., read-out: K i for inhibition of huPA-H99Y-Q192A): 438 ± 79 nM

Compound: CC(=O)N[C@H]1CSSC[C@@H](C(N)=O)NC(=O)[C@H](CC(=O)O)NC(=O)[C@H](CC(C)C)NC(=O)[C@H](Cc2ccc(O)cc2)NC(=O)[C@H](CCCNC(=N)N)NC(=O)[C@H](CO)NC(=O)[C@H](Cc2ccc(O)cc2)NC(=O)[C@H](C)NC(=O)[C@@H]2CCCN2C1=O [Mupain-1, CPAYSRYLDC] (Ac-CPAYSRYLDC-NH2; disulfide 1-10)
- Ki [2]: 39500 ± 2900 nM
- Ki [3]: 32400 ± 5300 nM
- Ki [14]: 56600 ± 8000 nM
- Ki [5]: 4290 ± 150 nM
- Ki [6]: 26000 ± 5800 nM
- Ki [7]: 4880 ± 350 nM
- Ki [8]: 1600 ± 530 nM
- Ki [9]: 246 ± 44 nM
- Kd ([10]; K D, huPA-H99Y, 25°C, pH 7.4, calculated as k off/k on): 14100 ± 2400 nM
- Kd ([10]; KD of fitted curve, representative sensorgram, huPA-H99Y immobilized on CM5 chip, single example (S3 Fig)): 15800 nM
- k off, huPA-H99Y ([10]; 25°C, pH 7.4): 80.2±7.6 (4) s^-1, ×10^2
- k on, huPA-H99Y ([10]; 25°C, pH 7.4): 0.569±0.103 (4) M^-1s^-1, ×10^-5
- koff ([10]; huPA-H99Y immobilized on CM5 chip, single example (S3 Fig), read-out: koff of fitted curve, representative sensorgram): 0.803 s⁻¹
- kon ([10]; huPA-H99Y immobilized on CM5 chip, single example (S3 Fig), read-out: kon of fitted curve, representative sensorgram): 50900 M⁻¹ s⁻¹
- k off, muPA [11]: 3.64±1.03 (6) s^−1, ×10^2
- k on, muPA [11]: 0.914±0.250 (6) M^−1s^−1, ×10^−5
- Kd [12]: 5040 ± 1610 nM
- Ki [15]: 15300 ± 2000 nM
- Ki [16]: ~500 nM
- Ki [13]: 33200 ± 4200 nM
